Ki data for nine molecules are collected here from patent publication US12344612B2, “Bicyclic ketone compounds and methods of use thereof” (Genentech, Inc., priority 2019, dated 2025).

For this assay, the target named is human RIP1 kinase domain (2-375) (Homo sapiens (Human), UniProt Q13546). The assay is described as follows: RIP1 kinase inhibition biochemical assay (Transcreener ADP, fluorescence polarization). The following applies: apparent Ki (Morrison tight-binding fit); 50 nM enzyme, 50 μM ATP, 2 hours incubation. The protocol: RIP1 Kinase Inhibition Assays (Biochemical Assay)
The compounds of the present invention were tested for their capacity to inhibit RIP1K activity as described below.
The ability of the receptor interacting protein kinase (RIPK1) to catalyze the hydrolysis of adenosine-5′-triphosphate (ATP) is monitored using the Transcreener ADP (adenosine-5′-diphosphate) assay (BellBrook Labs). Purified human RIP1 kinase domain (2-375) (50 nM) derived from a baculovirus-infected insect cell expression system is incubated with test compounds for 2 hours in 50 mM Hepes buffer (pH 7.5) containing 30 mM MgCl2, 1 mM dithiothreitol, 50 μM ATP, 0.002% Brij-35, and 0.5% dimethyl sulfoxide (DMSO). Reactions are quenched by the addition of 1× Bell Brooks Stop buffer B (20 mM Hepes (ph7.5), 40 mM ethylenediaminetetraacetic acid and 0.02% Brij-35) containing an additional 12 mM EDTA and 55 ug/mL ADP2 antibody and 4 nM ADP-AlexaFluor® 633 tracer. The tracer bound to the antibody is displaced by the ADP generated during the RIP1K reaction, which causes a decrease in fluorescence polarization that is measured by laser excitation at 633 nm with a FP microplate reader M1000. Fractional activity was plotted against test article concentration. Using Genedata Screener software (Genedata; Basel, Switzerland), the data were fit to the tight-binding apparent inhibition constant (Ki^app) Morrison equation [Williams, J. W. and Morrison, J. F. (1979) The kinetics of reversible tight-binding inhibition. Methods Enzymol 63: 437-67]. The following equation was used to calculate fractional activity and Ki^app:
[formula] where [E]T and [I]T are the total concentrations of active enzyme and test article, respectively.
Exemplary compounds of the present invention are provided in Table 1 along with their physiochemical characterization and in vitro RIP1 kinase inhibitory activity data. “Method” in the first column of each table refers to the synthetic method(s) used to prepare each compound as shown in the Examples above.
On the technique in general: Fluorescence polarisation rises when a labelled molecule tumbles more slowly, as on binding a larger partner.

Chain of human RIP1 kinase domain (2-375) (Q13546 2-375): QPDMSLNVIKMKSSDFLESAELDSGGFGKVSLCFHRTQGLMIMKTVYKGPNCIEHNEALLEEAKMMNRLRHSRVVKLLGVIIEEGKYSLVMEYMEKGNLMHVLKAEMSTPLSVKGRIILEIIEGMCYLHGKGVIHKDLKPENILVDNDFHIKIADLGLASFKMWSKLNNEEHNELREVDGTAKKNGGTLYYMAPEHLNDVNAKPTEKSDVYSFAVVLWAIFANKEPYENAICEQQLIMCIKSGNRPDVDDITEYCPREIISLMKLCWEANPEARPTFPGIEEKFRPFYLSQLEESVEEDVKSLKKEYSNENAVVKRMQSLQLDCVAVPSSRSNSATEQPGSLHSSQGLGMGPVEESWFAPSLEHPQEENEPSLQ

Regarding `CC1(C)OCC2CC21C(=O)c1nc2n(n1)[C@H](c1ccccc1)C[C@@H]2F` (mixture of isomers) [Example 3, (2,2-dimethyl-3-oxabicyclo[3.1.0]hexan-1-yl)-[rac-(5S,7S)-7-fluoro-5-phenyl-6,7-dihydro-5H-pyrrolo[1,2-b][1,2,4]triazol-2-yl]methanone], the Ki was 84 nM.

As to `O=C(c1nc2n(n1)[C@H](c1cncc(F)c1)C[C@@H]2F)C1CC1` (single isomer, unassigned) [Example 1], the Ki came out at 9 nM.

On to `O=C(c1nc2n(n1)[C@@H](c1cncc(F)c1)C[C@H]2F)C1CC1` (single isomer, unassigned) [Example 2], for which the Ki is more than 10000 nM.

Regarding `CCC(=O)c1nc2n(n1)[C@H](c1cnn(C)c1)C[C@@H]2F` (single isomer, unassigned) [Example 6], the Ki amounted to 25 nM.

For `CC(=O)N1CC(C(=O)c2nc3n(n2)[C@H](c2ccccc2)C[C@@H]3F)C1` (single isomer, unassigned) [Example 7], the Ki is 130 nM.

As to `N#Cc1cccc([C@@H]2C[C@H](F)c3nc(C(=O)C4CC4)nn32)c1` (single isomer, unassigned) [Example 8], the Ki was determined as 28 nM.

In the case of `O=C(c1nc2n(n1)[C@H](c1cccc(Cl)c1)C[C@@H]2F)C1CC1` (single isomer, unassigned) [Example 9], the Ki stood at 6.5 nM.

Take `CC(C)(CO)C(=O)c1nc2n(n1)[C@H](c1ccccc1)C[C@@H]2F` [Example 4, 3-hydroxy-2,2-dimethyl-1-((5S,7S)-7-fluoro-5-phenyl-6,7-dihydro-5H-pyrrolo[1,2-b][1,2,4]triazol-2-yl)propan-1-one]: the Ki stood at 31 nM.

For `CC(C)(COC(F)F)C(=O)c1nc2n(n1)[C@H](c1ccccc1)C[C@@H]2F` [Example 5, 3-(difluoromethoxy)-2,2-dimethyl-1-((5S,7S)-7-fluoro-5-phenyl-6,7-dihydro-5H-pyrrolo[1,2-b][1,2,4]triazol-2-yl)propan-1-one], the Ki was less than 5 nM.
